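Where inhibition never reached the appropriate level, the endpoint shown equals the highest concentration tested. Otherwise, values were interpolated linearly from a five-concentration, 48-hour dose response in 96-well plates. The concentration for full growth arrest is given as TGI.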

Test systems include A498 renal; ACHN renal; HCT-15 colon; K-562 leukemia; KM12 colon; MALME-3M melanoma; MDA-MB-435; MOLT-4 leukemia; OVCAR-4 ovarian; PC-3 prostate; SK-MEL-28 melanoma; SR leukemia; U251 CNS; SF-539 CNS; SK-MEL-2 melanoma; T-47D breast; TK-10 renal; SK-OV-3 ovarian; SNB-75 CNS.
Common to all, as to assay: inhibition of tumour cell growth, NCI panel, 48 h

With `CSc1sc(C)cc1-c1nsc(=O)o1`, the TGI in the assay with A498 renal, with ACHN renal, in the assay on HCT-15 colon, in the assay with K-562 leukemia, in the assay on KM12 colon and with MALME-3M melanoma was over 100 µM each time. In addition, the TGI in the assay on MDA-MB-435, in the assay with MOLT-4 leukemia, in the assay with OVCAR-4 ovarian, in the assay on PC-3 prostate, in the assay with SK-MEL-28 melanoma and in the assay with SR leukemia was over 100 µM throughout. The compound also returned a TGI in the assay with U251 CNS of over 100 µM.

For `CC(=O)OC[C@@]12CC[C@H]3C(C)(C)CCC[C@]3(C)[C@H]1C[C@@H](C1=CC(=O)O[C@H]1O)O2`, the TGI in the assay with ACHN renal amounted to 5.12 µM; in the assay on HCT-15 colon, 5.15 µM; in the assay with K-562 leukemia, 3.56 µM; in the assay with KM12 colon it was 35.8 µM; with MDA-MB-435, 4.6 µM; in the assay on MOLT-4 leukemia, 6.23 µM. For the same compound, the TGI stood at 17.4 µM with PC-3 prostate; 5.28 µM in the assay on SF-539 CNS; 4.37 µM in the assay on SK-MEL-2 melanoma; 4.36 µM in the assay with SK-MEL-28 melanoma; 4.08 µM in the assay on SR leukemia; 8.67 µM with T-47D breast. In addition, the TGI with TK-10 renal was 12 µM.

`CN(C)C(=O)c1nnsc1NN=O`: the TGI in the assay on ACHN renal, with HCT-15 colon, in the assay on K-562 leukemia, with KM12 colon, with MALME-3M melanoma and in the assay with MDA-MB-435 was over 100 µM throughout. Besides, the TGI in the assay with MOLT-4 leukemia, in the assay with OVCAR-4 ovarian, in the assay with PC-3 prostate, in the assay with SK-MEL-2 melanoma, in the assay with SK-MEL-28 melanoma and in the assay with SK-OV-3 ovarian was over 100 µM each time. Also, the TGI with SNB-75 CNS, in the assay with SR leukemia, in the assay with T-47D breast and in the assay on U251 CNS was over 100 µM throughout.

With `COC(=O)C(CCC1(C)OCCO1)C(C)=O` (stereo not drawn), the TGI in the assay on A498 renal, in the assay with ACHN renal, with HCT-15 colon, in the assay on K-562 leukemia, with KM12 colon and with MALME-3M melanoma was over 100 µM each time. The TGI in the assay on MOLT-4 leukemia, with OVCAR-4 ovarian, in the assay with SF-539 CNS, with SK-MEL-2 melanoma, in the assay on SK-MEL-28 melanoma and in the assay on SK-OV-3 ovarian was over 100 µM each time. The TGI with SNB-75 CNS, with SR leukemia, in the assay on TK-10 renal and in the assay on U251 CNS was over 100 µM throughout.

Take `COC1=C(C)C(=O)C2C(C1=O)C(c1ccc(OC)c(OC)c1)[C@H]2C` (stereo partly drawn): the TGI with A498 renal, with ACHN renal, with HCT-15 colon, in the assay with K-562 leukemia, in the assay on KM12 colon and in the assay with MALME-3M melanoma was over 100 µM each time. In addition, the TGI with MOLT-4 leukemia, with OVCAR-4 ovarian, in the assay with SF-539 CNS, with SK-MEL-2 melanoma, with SK-MEL-28 melanoma and in the assay with SK-OV-3 ovarian was over 100 µM throughout. Besides, the TGI with SNB-75 CNS, in the assay on SR leukemia, with TK-10 renal and in the assay on U251 CNS was over 100 µM each time.

`Fc1ccc(C2(CCCN3CCc4[nH]c5cc(F)ccc5c4C3)OCCO2)cc1`: the TGI was found to be 28.9 µM with A498 renal; 23.5 µM in the assay on ACHN renal; 31 µM in the assay with HCT-15 colon; 18.3 µM with K-562 leukemia; 29.8 µM with KM12 colon; 25.9 µM with MALME-3M melanoma. The TGI with MDA-MB-435 was determined as 26.5 µM; in the assay with MOLT-4 leukemia, 21.9 µM; in the assay on OVCAR-4 ovarian, 26.7 µM; with SF-539 CNS it was 25.5 µM; in the assay with SK-MEL-28 melanoma, 25.6 µM; with SK-OV-3 ovarian it was 26.7 µM. Further, the TGI in the assay on SNB-75 CNS was determined as 25.1 µM; with SR leukemia, 22 µM; with T-47D breast, 30.4 µM; with TK-10 renal, 28.1 µM; in the assay on U251 CNS, 28.1 µM.

With `CCOC(=O)CSc1[nH]c2nc(C)nc(Cl)c2c1C#N`, the TGI with HCT-15 colon, in the assay on K-562 leukemia, with KM12 colon, with MALME-3M melanoma, with MDA-MB-435 and with MOLT-4 leukemia was over 10 µM in each case. For the same compound, the TGI with OVCAR-4 ovarian, with PC-3 prostate, in the assay on SK-MEL-28 melanoma, with SK-OV-3 ovarian, with SNB-75 CNS and in the assay on SR leukemia was over 10 µM each time. Moreover, the TGI in the assay with T-47D breast and in the assay with TK-10 renal was over 10 µM in each case.

In the case of `CSc1nc(C)cc(N(C)c2ccccc2)n1`, the TGI with A498 renal was over 100 µM; in the assay with ACHN renal it was over 100 µM; with HCT-15 colon it was over 100 µM; in the assay on K-562 leukemia, over 100 µM; in the assay with KM12 colon, 20 µM; with MALME-3M melanoma, over 100 µM. The TGI with MDA-MB-435 was 53 µM; in the assay with MOLT-4 leukemia it was over 100 µM; in the assay with OVCAR-4 ovarian it was over 100 µM; in the assay with PC-3 prostate it was over 100 µM; in the assay with SF-539 CNS, 66 µM; in the assay with SK-MEL-2 melanoma, over 100 µM. Further, the TGI was over 100 µM with SK-MEL-28 melanoma; over 100 µM in the assay on SK-OV-3 ovarian; 94.3 µM in the assay on SNB-75 CNS; 60.7 µM in the assay with SR leukemia; 98.9 µM in the assay with TK-10 renal; over 100 µM in the assay on U251 CNS.

Regarding `O=C(CC(=O)C(=O)CC(=O)OCc1ccccc1)OCc1ccccc1`, the TGI in the assay with A498 renal, with HCT-15 colon, in the assay with K-562 leukemia, with MALME-3M melanoma, in the assay with MOLT-4 leukemia and in the assay with OVCAR-4 ovarian was over 100 µM throughout. In addition, the TGI in the assay with SF-539 CNS, in the assay with SK-MEL-2 melanoma, in the assay with SK-MEL-28 melanoma, in the assay on SK-OV-3 ovarian, in the assay with SNB-75 CNS and with SR leukemia was over 100 µM each time. In addition, the TGI in the assay with TK-10 renal and in the assay on U251 CNS was over 100 µM throughout.

Take `CSc1nc2nc(C)c(C)nc2c(=O)[nH]1`: the TGI in the assay with A498 renal, in the assay on ACHN renal, in the assay on HCT-15 colon, in the assay with K-562 leukemia, with KM12 colon and in the assay on MALME-3M melanoma was over 100 µM throughout. Further, the TGI with MOLT-4 leukemia, in the assay with OVCAR-4 ovarian, in the assay with SK-MEL-2 melanoma, in the assay on SK-MEL-28 melanoma, with SK-OV-3 ovarian and in the assay on SNB-75 CNS was over 100 µM in each case. For the same compound, the TGI in the assay with SR leukemia, in the assay on TK-10 renal and in the assay on U251 CNS was over 100 µM in each case.

In the case of `CCOC(=O)[C@H](Cc1ccccc1)NC(=O)c1nc[nH]c1[N+](=O)[O-]`, the TGI with A498 renal, in the assay on ACHN renal, in the assay with HCT-15 colon, in the assay with K-562 leukemia, in the assay with KM12 colon and in the assay on MALME-3M melanoma was over 100 µM throughout. The TGI with MOLT-4 leukemia, with OVCAR-4 ovarian, in the assay with SF-539 CNS, with SK-MEL-2 melanoma, in the assay on SK-MEL-28 melanoma and in the assay on SK-OV-3 ovarian was over 100 µM in each case. The TGI with SNB-75 CNS, with SR leukemia, in the assay with TK-10 renal and in the assay with U251 CNS was over 100 µM each time.

As to `C=CC1(c2ccc(Cl)c(Cl)c2)OCCO1`, the TGI in the assay with ACHN renal, in the assay with HCT-15 colon, with K-562 leukemia, in the assay on KM12 colon, in the assay with MALME-3M melanoma and in the assay with MDA-MB-435 was over 100 µM each time. Further, the TGI with MOLT-4 leukemia, with OVCAR-4 ovarian, in the assay with PC-3 prostate, in the assay on SK-MEL-2 melanoma, in the assay on SK-MEL-28 melanoma and in the assay on SK-OV-3 ovarian was over 100 µM throughout. Besides, the TGI in the assay on SNB-75 CNS is 55.2 µM; with SR leukemia it was over 100 µM; in the assay on T-47D breast, over 100 µM; in the assay on TK-10 renal it was over 100 µM; in the assay with U251 CNS, over 100 µM.

With `Cc1cc(=O)cc2sc3cc(Cl)ccc3nc1-2`, the TGI turned out to be 45.4 µM in the assay on A498 renal; 30.6 µM with ACHN renal; 16 µM in the assay on HCT-15 colon; 20.6 µM in the assay on K-562 leukemia; 24.5 µM in the assay with KM12 colon; 39.7 µM in the assay on MALME-3M melanoma. The TGI in the assay on MOLT-4 leukemia is over 60.8 µM; in the assay with OVCAR-4 ovarian it was over 85.4 µM; with SF-539 CNS, 26.1 µM; in the assay on SK-MEL-2 melanoma, 23.5 µM; in the assay with SK-MEL-28 melanoma, 69.2 µM; in the assay with SK-OV-3 ovarian, over 82.5 µM. Moreover, the TGI was determined as 15.7 µM with SNB-75 CNS, 10.3 µM with SR leukemia, 53.8 µM with TK-10 renal and 33.9 µM in the assay on U251 CNS.

For `CC(=O)Oc1ccn2nc(C)c(Cc3c(C)nn4ccc(OC(C)=O)cc34)c2c1`, the TGI in the assay on ACHN renal was over 100 µM; in the assay on HCT-15 colon, over 100 µM; in the assay with K-562 leukemia, over 100 µM; in the assay on KM12 colon, over 100 µM; in the assay with MALME-3M melanoma it was over 100 µM; in the assay on MDA-MB-435, 50.4 µM. In addition, the TGI in the assay with MOLT-4 leukemia is over 100 µM; in the assay with OVCAR-4 ovarian, over 100 µM; with PC-3 prostate, over 10 µM; with SF-539 CNS, over 100 µM; in the assay with SK-MEL-2 melanoma, over 100 µM; in the assay with SK-MEL-28 melanoma it was over 100 µM. The TGI in the assay on SNB-75 CNS, in the assay on SR leukemia, with T-47D breast, with TK-10 renal and in the assay on U251 CNS was over 100 µM throughout.

Source of the values: PubChem BioAssay (NCI).
